Data taken from patent publication US20250090441A1, “ANTI-CARIES PEPTIDES WITH ANTIMICROBIAL AND REMINERALIZING PROPERTIES AND METHODS THEREOF” (THE UNIVERSITY OF HONG KONG, priority 2023, published 2025).
In brackets after ≈: the same amount, converted by molar mass. Where a SMILES comes first, the peptide text is derived from it.

Experiments:
[1] = test system: Streptococcus mutans, UA159; experiment: MIC and MBC/MFC test; format: cell-based
Experimental: (§1) The antimicrobial properties of synthesized peptides against bacteria and fungi were evaluated using minimum inhibitory concentration (MIC) and minimum bactericidal/fungicidal concentration (MBC/MFC) tests (Wiegand et al. 2008). The tested species include Streptococcus mutans, UA159; Lacticaseibacillus casei, American Type Culture Collection (ATCC) 334; and Candida albicans, ATCC 90028. A 10 μL aliquot of bacterial culture (10^6 CFU/mL) in brain heart infusion (BHI) broth was added to 100 μL serial two-fold dilutions of experimental solutions. The optical density values at 660 nm were measured after 18 h of incubation. To determine the MBC, 10 μL of bacterial culture was taken from the well of MIC, and wells before and after the well of MIC, and transferred to blood agar. The test protocol for fungi was similar: the culture medium was a Roswell Park Memorial Institute (RPMI) 1640 Medium, the absorbance was measured at 520 nm, and Sabouraud dextrose agar was used for the MFC test. Chlorhexidine and medium were used as the positive and negative controls.

[2] = test system: Lacticaseibacillus casei, ATCC 334; experiment: MIC and MBC/MFC test; format: cell-based
Experimental: as §1

[3] = test system: S. mutans biofilm (ATCC 35668) on dentine blocks; experiment: Antibiofilm effect on dentine, biofilm remineralization cycling model (CLSM, CFU); format: cell-based, Streptococcus mutans; conditions: 160 μM GAPI, 7 days cycling, n = 8
Source text: Dentine slices, 2 mm thick, were cut from sound extracted third molars. Ultra-fine 4000-grit sandpaper was used to polish these slices. Slices with defects were eliminated based on a stereomicroscope observation. A total of forty dentine slices were selected. Each slice was separated into two blocks and assigned to two groups. Nail varnish was used to coat half of the blocks as an internal control. S. mutans American Type Culture Collection 35668 was utilized in the present study. All the dentine blocks were placed into S. mutans culture (10^8 cells/mL) in a brain-heart infusion (BHI) broth containing 5% glucose to generate artificial caries. After a 3-day anaerobic culture at 37° C., the depth of the caries lesion surface was around 96 μm, which was observed using micro-computed tomography (micro-CT). […]
CLSM (Fluoview FV 1000, Olympus, Tokyo, Japan) was utilized to capture images to assess the S. mutans biofilm viability (n=8 for each group). […] The red-green ratio represented the dead-live ratio calculated using Image J version 1.53 t (National Institute of Health, Bethesda, MD, USA).
To determine the S. mutans biofilm growth kinetics, the colony-forming units (CFUs) were counted (n=8 for each group). […] All the plates were cultured anaerobically for 48 h at 37° C. before the CFUs were counted. The log CFU was calculated for a statistical analysis.

[4] = Streptococcus mutans (UA159), μM

SMILES: CC(C)[C@@H]1NC(=O)[C@H](CCCN=C(N)N)NC(=O)[C@H](Cc2ccccc2)NC(=O)[C@@H](NC(=O)[C@H](Cc2c[nH]c3ccccc23)NC(=O)[C@H](CCCN=C(N)N)NC(=O)[C@H](CCCN=C(N)N)NC(=O)c2cc(O)c(O)c(O)c2)CSSC[C@@H](C(=O)N[C@@H](CCCN=C(N)N)C(=O)O)NC(=O)[C@H](CCCCN)NC(=O)[C@H](CCCN=C(N)N)NC(=O)[C@H](Cc2ccc(O)cc2)NC(=O)[C@@H]2CSSC[C@H](NC1=O)C(=O)N[C@@H](Cc1ccc(O)cc1)C(=O)N[C@@H](CCCN=C(N)N)C(=O)NCC(=O)N[C@@H](Cc1ccccc1)C(=O)N2 [GAPI, Gallic-Acid-Polyphemusin-I] (HELM PEPTIDE1{[O=C(c1cc(O)c(O)c(O)c1)[*:2]].R.R.W.C.F.R.V.C.Y.R.G.F.C.Y.R.K.C.R}$PEPTIDE1,PEPTIDE1,5:R3-18:R3|PEPTIDE1,PEPTIDE1,9:R3-14:R3$$$V2.0)
- minimum inhibitory concentration ([1]; Streptococcus mutans): 40 µM (≈ 104 µg/mL)
- MBC/MFC [1, 4]: 80
- MIC [1, 4]: 40
- minimum inhibitory concentration [2]: 40 µM (≈ 104 µg/mL)
- MBC/MFC ([2]; μM): 160
- MIC ([2]; μM): 40
- Viability: Dead-to-live ratio ([3]; CLSM): 0.77±0.13
- Kinectics: Log10 CFU [3]: 7.45±0.32
